Measured values taken from patent US20130072506A1, “6,8-DISUBSTITUTED PURINE COMPOSITIONS” (priority 2011, published 2013).
pIC50: −log10 of the molar value.

Legend:
[1] = test system: SKH-1 hairless mice; experiment: Hairless mouse assay: epidermal bromodeoxyuridine (BrdU) staining; assay type: in vivo; conditions: epidermal BrdU staining after 3 weeks of topical treatment, 0.1% (tretinoin 0.05%)
From the text: This study determined the effect of topical compound formulations on epidermal cell proliferation using bromodeoxyuridine as an immunohistochemical marker of cell proliferation. Histological examination of the treated and control skin were used to determine cutaneous effects of the topical compounds. Topical tretinoin 0.05% (Renova™) was used as a therapeutic control.
(§1) Experimental Design. 48 female SKH-1 hairless mice (5 weeks old, 20-25 grams, Charles River Laboratories, Wilmington, Mass.) are individually housed in filter-top cages, and acclimated for 5-7 days after delivery. The mice are divided into 8 treatment groups (n=6), including two different control groups (untreated control, vehicle control) and a therapeutic control (tretinoin 0.05% Renova™ cream). Cage cards are marked to indicate treatment groups 1-8. Water and mouse chow are provided ad libitum.
(§2) Topical Treatments. Beginning on Treatment Day 1, test products are applied topically each morning (Monday through Friday) after erythema evaluations for 3 weeks. Using a positive displacement pipette, 20 mg of each agent is applied to a 2 cm×2 cm area of the center midline of the back. The material was spread across the treatment area with the pipette tip.
Bromodeoxyuridine Injection. All animal groups are injected with bromodeoxyuridine (100 mg/kg) I.P. 4 hours after the final application. Animals are sacrificed by CO2 inhalation 3 hours later followed by cervical dislocation. The test sites are excised, and 6 mm punch biopsies are obtained from each treatment site, and from untreated controls. Biopsies are placed into labeled vials containing 4% neutral buffered formalin for paraffin embedding and anti-BrdU staining.
Bromodeoxyuridine Immunohistochemical Staining. Paraffin sections are cut to a […] thickness and stained using the BrdU Immuno-histochemistry kit (X1545K from Exalpha Biologicals, Inc.) and a standard staining protocol. The slides are weakly counterstained in Mayer's hematoxylin and scored under a light microscope for the number of BrdU-positive cells per mm of epidermis for each section. The data are expressed as mean BrdU-positive cells/mm for each treatment group. Differences in BrdU labeling in the treatment groups are statistically analyzed using the Students t-test. Representative photographs are taken of the histological sections of the BrdU-positive staining cells.

[2] = test system: SKH-1 hairless mice; experiment: Hairless mouse assay: skin moisture content; assay type: in vivo; conditions: compared with the vehicle
From the text: Evaluation of cutaneous effects of new topical compounds in the hirless mouse assay. The purpose of this study was to evaluate new topical compounds for their safety and efficacy as topical skin anti-aging treatments. The hairless mouse model is a well established model for studying the treatments of photoaging. […] The present study was used to investigate a new class of anti-aging compounds in comparison to classical ones. […] Topical compounds and vehicle controls were be applied daily (Monday-Friday) for 3 weeks to the dorsal skin of hairless mice. At baseline (prior to the 1st treatment), and weekly, the dorsal skin was measured for: transepidermal water loss (TEWL); skin moisture content; and skin elasticity.
as §1
Skin Moisture Content & Elasticity. The measurements of skin moisture content and skin elasticity are important noninvasive methods used to characterize the effects of moisturizers and anti-wrinkle effects on skin. A DermaLab™ combination instrument were used to measure the skin moisture content and elasticity of the target skin sites at baseline and at weekly intervals. This instrument is equipped with dual probes which are placed on the skin surface and a quantitative measurement taken of the respective parameters and the measurements recorded on an integrated computer. Mean measurements was determined for each treatment group over time, and comparative statistics used to evaluate product effectiveness.
as §2

[3] = test system: erytroid leukemia cell line K-562; experiment: In vitro cytotoxic activity (metabolisation of Calcein AM); assay type: cell-based, human; conditions: Homo sapiens, K562, K-562 cells, 72 hours incubation, called GI50, read-out: Cell line tested/IC50 (μmol/L) K-562
Procedure, shortened: (§3)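 Cells were pre-incubated 24 hours at 2.500-30.000 cells per well, then exposed to six 3-fold dilutions, usually from 100 μM top, for 72 hours at 37° C, 5% CO2, in triplicate. Calcein AM was added at 1 μg/ml final and fluorescence read after 1 hour; GI50 is the concentration halving Calcein AM conversion.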

[4] = test system: melanoma cell line G-361; experiment: as above; assay type: cell-based, human; conditions: Homo sapiens, G-361 cells, 72 hours incubation, called GI50, read-out: Cell line tested/IC50 (μmol/L) G-361
Procedure, shortened: as §3

[5] = test system: breast carcinoma cell line MCF-7; experiment: as above; assay type: cell-based, human; conditions: Homo sapiens, MCF7 cells, 72 hours incubation, called GI50, read-out: Cell line tested/IC50 (μmol/L) MCF7
Procedure, shortened: as §3

[6] = test system: normal diploid fibroblasts BJ; experiment: as above; assay type: cell-based, human; conditions: Homo sapiens, BJ cells, 72 hours incubation, called GI50, read-out: Cell line tested/IC50 (μmol/L) BJ
Procedure, shortened: as §3

[7] = test system: T-lymphoblastic leukemia cell line CEM; experiment: as above; assay type: cell-based, human; conditions: Homo sapiens, CCRF-CEM, CEM cells, 72 hours incubation, called GI50, read-out: Cell line tested/IC50 (μmol/L) CEM
Procedure, shortened: as §3

[8] = test system: osteosarcoma cell line HOS; experiment: as above; assay type: cell-based, human; conditions: Homo sapiens, HOS cells, 72 hours incubation, called GI50, read-out: Cell line tested/IC50 (μmol/L) HOS
Procedure, shortened: as §3

[9] = test system: Human diploid fibroblast BJ; experiment: In vitro cytotoxic activity (metabolisation of MTT); assay type: cell-based; conditions: 72 hours, BJ passage 18-22
Procedure, shortened: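 BJ human diploid fibroblasts (passage 18-22) exposed 72 h to compounds at 0-200 μM (top dose lowered if solubility-limited), pentaplicate. MTT 0.5 mg/ml final added for 3 h, formazan dissolved in DMSO, absorbance at 570 nm. GI20 (20% drop in mitochondrial dehydrogenase activity) taken from dose-response curves.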

[10] = test system: excised wheat leaf tips; experiment: Senescence inhibition on winter wheat leaf segments (chlorophyll retention); assay type: in vivo, Triticum aestivum cv. Hereward; conditions: for Activity (%): at concentration with highest activity, activity of 10^−4 M kinetin set at 100%; for Concentration with highest activity: retention of chlorophyll in excised wheat leaf tips, 96 hours in the dark
Experimental: Senescence Inhibition by Novel Compounds Tested on Winter Wheat Leaf Segments. Seeds of winter wheat, Triticum aestivum cv. Hereward, were washed under running water for 24 hours and then sown on vermiculite soaked with Knop's solution. They were placed in the grown chamber at 25° C. with a 16/8 hours light period at […]·m^−2·s^−1. After 7 days, the first leaf was fully developed and the second leaf had started to grow. A tip section of the first leaf, approximately 35 mm long, was removed from 5 seedlings and trimmed slightly to a combined weight of 100 mg. The basal ends of the five leaf tips were placed in the wells of a microtiter polystyrene plate containing […] of a cytokinin solution each. The entire plate was inserted into a plastic box lined with paper tissues soaked in distilled water to prevent leaf sections from drying out. After 96 hours incubation in the dark at 25° C., the leaves were removed and chlorophyll extracted by heating at 80° C. for 10 min in 5 ml of 80% ethanol (v/v). The sample volume was then restored to 5 ml by the addition of 80% ethanol (v/v). The absorbance of the extract was recorded at 665 nm. In addition, chlorophyll extracts from fresh leaves and leaf tips incubated in deionized water were measured. The set up of the assay is shown on FIG. 1. From the obtained data, the concentration with highest activity was selected for each compound tested. Relative activity of the compound at this concentration was calculated (see Table 2 below). […] The values shown are means of five replicates and the whole experiment was repeated twice.
The compounds to be tested were dissolved in dimethylsulfoxide (DMSO) and the solution brought up to 10^−3 M with distilled water.

[11] = test system: cytokinin-dependent tobacco callus; experiment: Growth of cytokinin-dependent tobacco callus (plant cell division); assay type: cell-based, Nicotiana tabacum L. cv. Wisconsin 38; conditions: for Activity (%): at concentration with highest activity, activity of kinetin set at 100%
Experimental: The effect on plant cell division. Cytokinin-dependent tobacco callus Nicotiana tabacum L. cv. Wisconsin 38 was maintained at 25° C. in darkness on modified MS medium, containing 4 μmol/l nicotinic acid, 2.4 μmol/l pyridoxine hydrochloride, 1.2 μmol/l thiamine, 26.6 μmol/l glycine, 1.37 μmol/l glutamine, 1.8 μmol/1 myo-inositol, 30 g/l of sucrose, 8 g/l of agar, 5.37 μmol/l NAA and 0.5 μmol/l BAP. Subcultivation was carried out every three weeks. Fourteen days before the bioassay, the callus tissue was transferred to the media without BAP. Biological activity was determined from the increase in fresh callus weight after four weeks of cultivation. Five replicates were prepared for each cytokinin concentration and the entire test was repeated twice. From the obtained data, the concentration with highest activity was selected for each compound tested. Relative activity at this concentration was calculated (see Table 4 below).
The cytokinins to be tested were dissolved in dimethylsulfoxide (DMSO) and the solution brought up to 10^−3M with distilled water.

[12] = test system: Amaranthus caudatus cotyledon/hypocotyl explants; experiment: Amaranthus bioassay (betacyanin content); assay type: in vivo, Amaranthus caudatus var. atropurpurea; conditions: for Activity (%): at concentration with highest activity, activity of kinetin set at 100%; for Concentration with highest activity: betacyanin content, 48 hours in darkness
Experimental: Testing of Novel Compounds in Amaranthus bioassay. Standard Amaranthus bioassay was performed with several modifications. The seeds of Amaranthus caudatus var. atropurpurea were surface-sterilized in 10% N-chlorobenzene sulfonamide (w/v) for 10 min and washed 5 times in deionized water. They were placed in 14 cm Petri dishes containing paper tissues saturated with deionized water. After 72 hours of cultivation at 25° C. in darkness, the roots of the seedlings were cut off. The explants, consisting of two cotyledons and hypocotyls, were placed in 5 cm Petri dishes on two layers of filter paper soaked in 1 ml of incubation medium containing 10 μmol Na2HPO4—KH2PO4, pH 6.8, 5 μmol tyrosine and the cytokinin to be tested. There were 20 explants per dish. The procedure was carried out under a green safe light in a darkroom. After a 48 hours of incubation at 25° C. in darkness, betacyanin was extracted by freezing the explants in 4 ml 3.33 μM acetic acid. The concentration of betacyanin was determined by comparing the absorbance at 537 nm and 620 nm as follows: DA=A537nm−A620nm. From the obtained data, the concentration with highest activity was selected for each compound tested. Relative activity of the compound at this concentration was calculated (see Table 3 below). […] The values shown in Table 3 are means of five replicates and the entire test was repeated twice.
The cytokinins to be tested were dissolved in dimethylsulfoxide (DMSO) and the solution brought up to 10^−3 M with distilled water.

melting point | Compound | Activity (%) [10] | Concentration with highest activity [10] | Activity (%) [11] | Activity (%) [12] | Concentration with highest activity [12] | also measured
 | c1coc(CNc2ncnc3c2ncn3C2CCCCO2)c1 (stereo not drawn) [6-Furfurylamino-9-(2-tetrahydropyranyl)purine] |  |  |  |  |  | Mean Nuclei Stained [1]: 5.3 ± 4.2; average moisture content [2]: higher than that of the vehicle
 | Brc1nc2ncnc(NCc3ccccc3)c2[nH]1 [Compound 2, 6-Benzylamino-8-bromopurine] | 144.76 (±6) % | 10^−4 mol/l | 174.83% |  |  | pIC50 [3]: < 4.30; pIC50 [4]: < 4.30; pIC50 [5]: < 4.30; pIC50 [6]: < 4.30; pIC50 [7]: < 4.30; pIC50 [8]: < 4.30; GI20 [9]: >50 µM
 | Clc1nc2ncnc(NCc3ccccc3)c2[nH]1 [Compound 30, 6-Benzylamino-8-chloropurine] | 124.81 (±1) % | 10^−4 mol/l | 157.51% |  |  | GI20 [9]: >100 µM
217 to 219 °C | CN(C)c1nc2ncnc(NCc3ccccc3)c2[nH]1 [Compound 62, 6-Benzylamino-8-dimethylaminopurine] | 106.13 (±1) % | 10^−4 mol/l | 165.64% |  |  | 
267 to 269 °C | Sc1nc2ncnc(NCc3ccccc3)c2[nH]1 [Compound 138, 6-Benzylamino-8-sulphanylpurine] | 140.45 (±3) % | 10^−4 mol/l | 156.66% | 111.25% | 10^−4 mol/l | 
181 to 185 °C | CCOC(=O)c1nc2ncnc(NCc3ccccc3)c2[nH]1 [Compound 195, 6-Benzylamino-8-ethoxycarbonylpurine] | 122.06 (±2) % | 10^−4 mol/l |  | 122.55% | 10^−4 mol/l | 
 | C/C(=C\CNc1ncnc2[nH]cnc12)CO [Zeatin] |  |  |  |  |  | Mean Nuclei Stained [1]: 3.5 ± 3.4 mm; average moisture content [2]: higher than that of the vehicle
 | c1coc(CNc2ncnc3[nH]cnc23)c1 [kinetin, reference compound] | 100% | 10^−4 mol/l | 100% | 100% | 10^−5 mol/l | range of the optimal concentration ([11]; tobacco callus growth): sharp concentration optimum
